Peptide text beside a SMILES is read from it. * marks the point of attachment. Cbz = O=C(OCc1ccccc1)*; CH2F = FC*
Experiments:
[1] = system: calpain; assay: Immunoblotting for calpain activation in infected melanoma cells; format: cell-based, human; settings: delta-PK infected cultures; PD150606 100 μM; z-VAD-fmk 100 μM (Sigma-Aldrich) or 20 μM (Promega)
Description: (§1) FIG. 6. Calpain and caspase-7 and caspace-3 are activated in delta-PK infected melanoma cells. […] Data were quantified by densitometry and expressed as the ratio of the p76/p80 and p28 densitometric units +/−SD, respectively. Representatives of three replicate experiments are shown (***p<0.001 vs. Mock). B. The immunoblots in FIG. 6A were sequentially stripped and re-probed with antibodies to activated caspase-7, activated caspase-3, and actin. Data were quantified by densitometry and results are expressed as densitometric units +/−SD (**p<0.01, ***p<0.001 vs. Mock). C. […]
(§2) Cultured cells were lysed with radioimmunoprecipitation buffer [RIPA; 20 mM Tris-HCl (pH 7.4), […], 1% Nonidet P-40, 0.1% sodium dodecyl sulfate (SDS), 0.5% sodium deoxycholate] supplemented with protease and phosphatase inhibitor cocktails (Sigma-Aldrich), and sonicated twice for 30 seconds at 25% output power with a sonicator ultrasonic processor (Misonix, Inc., Farmingdale, N.Y.). […] Protein concentration was determined by the bicinchoninic assay (Pierce, Rockford, Ill.), and 100 μg protein samples were resolved by SDS-polyacrylamide gel elecrophoresis (SDS-PAGE) and transferred to polyvinylidene fluoride membranes followed by immunoblotting. […] Quantitation was by densitometric scanning with the Bio-Rad GS-700 imaging densitometer (Bio-Rad, Hercules, Calif.). […]

[2] = molecular target: T1, caspase-7 (Homo sapiens, UniProt P55210); assay: Immunoblotting for caspase-7 activation in infected melanoma cells; format: cell-based; settings: delta-PK infected cultures, 24 hrs p.i.; PD150606 100 μM; z-VAD-fmk 100 μM (Sigma-Aldrich) or 20 μM (Promega)
T1 construct: endogenous in cells; host or cells: A2058 human melanoma cells infected with delta-PK
T1 sequence (P55210 24-198 limits assumed): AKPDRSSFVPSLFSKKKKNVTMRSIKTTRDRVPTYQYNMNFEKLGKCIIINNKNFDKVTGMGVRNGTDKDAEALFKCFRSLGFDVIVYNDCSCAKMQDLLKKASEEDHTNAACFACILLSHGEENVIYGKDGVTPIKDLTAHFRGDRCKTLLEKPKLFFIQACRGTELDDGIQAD
T1 sequence (P55210 207-303 limits assumed): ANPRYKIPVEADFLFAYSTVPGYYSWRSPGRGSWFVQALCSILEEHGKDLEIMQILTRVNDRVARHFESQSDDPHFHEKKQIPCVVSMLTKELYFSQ
Description: as §1, §2

| Structure (SMILES) | effect of inhibitor on delta-PK induced calpain activation (p76/p80 ratio, p28) [1] | effect of inhibitor on delta-PK induced caspase-7 activation / cleavage products [2] |
| --- | --- | --- |
| COC(=O)C[C@H](NC(=O)[C@H](C)NC(=O)[C@@H](NC(=O)OCc1ccccc1)C(C)C)C(=O)CF [z-VAD-fmk, benzyloxcarbonyl-Val-Ala-Asp-fluormethyl ketone] (Cbz-Val-Ala-Asp(OMe)-CH2F) | did not affect calpain activation | inhibited |
| O=C(O)/C(S)=C/c1ccc(I)cc1 [PD150606] | inhibited | increased |

Reference: US8414885B2, “Methods and compositions for treating cancer” (priority 2009, dated 2013)
